Converted amounts (≈) assume the structure as drawn.
Test system: not listed separately
Experiment: Thermodynamic solubility of the compound at pH 6.8
Format: physicochemical
Details: buffer, read-out: Therm_solubility

Going from `CC(C)(C)OC(=O)N1Cc2ccc(/C=C/C(=O)NO)cc2C1` to `Cc1[nH]c2ccccc2c1CC(=O)N1Cc2ccc(/C=C/C(=O)NO)cc2C1`, the solubility thermodynamic falls from 99 µM (≈ 30.1 µg/mL) to under 20 µM.

First: O=C(/C=C/c1ccc2c(c1)CN(CCc1cnn3ccccc13)C2)NO
Second: Cc1[nH]c2ccccc2c1CCN1Cc2ccc(/C=C/C(=O)NO)cc2C1
The solubility thermodynamic of the first is 2.9-fold higher: 765 µM (≈ 267 µg/mL) for the first, 263 µM (≈ 95.1 µg/mL) for the second.

Compared with `Cc1ccc(S(=O)(=O)N2Cc3ccc(/C=C/C(=O)NO)cc3C2)cc1`, `COc1ccc(S(=O)(=O)N2Cc3ccc(/C=C/C(=O)NO)cc3C2)cc1` is lower in solubility thermodynamic: 20 µM (≈ 7.17 µg/mL) for the first, under 5 µM for the second.

First: O=C(/C=C/c1cccc(S(=O)(=O)Nc2ccccc2)c1)NO [BELINOSTAT]
Second: Cc1cccc(S(=O)(=O)N2Cc3ccc(/C=C/C(=O)NO)cc3C2)c1
The solubility thermodynamic of the first is 37-fold higher: 734 µM (≈ 234 µg/mL) for the first, 20 µM (≈ 7.17 µg/mL) for the second.

First: O=C(/C=C/c1ccc2c(c1)CN(S(=O)(=O)c1cccs1)C2)NO
Second: O=C(/C=C/c1ccc(CN(CCO)CCc2c[nH]c3ccccc23)cc1)NO [DACINOSTAT]
The solubility thermodynamic of the first is 2.9-fold lower: 34 µM (≈ 11.9 µg/mL) for the first, 97 µM (≈ 36.8 µg/mL) for the second.

`Nc1ccccc1NC(=O)c1ccc(CNC(=O)OCc2cccnc2)cc1` [ENTINOSTAT] showed a solubility thermodynamic of 401 µM (≈ 151 µg/mL).

Biological target: T1, Voltage-gated inwardly rectifying potassium channel KCNH2 (Homo sapiens, UniProt Q12809)
T1 sequence (Q12809 whole entry): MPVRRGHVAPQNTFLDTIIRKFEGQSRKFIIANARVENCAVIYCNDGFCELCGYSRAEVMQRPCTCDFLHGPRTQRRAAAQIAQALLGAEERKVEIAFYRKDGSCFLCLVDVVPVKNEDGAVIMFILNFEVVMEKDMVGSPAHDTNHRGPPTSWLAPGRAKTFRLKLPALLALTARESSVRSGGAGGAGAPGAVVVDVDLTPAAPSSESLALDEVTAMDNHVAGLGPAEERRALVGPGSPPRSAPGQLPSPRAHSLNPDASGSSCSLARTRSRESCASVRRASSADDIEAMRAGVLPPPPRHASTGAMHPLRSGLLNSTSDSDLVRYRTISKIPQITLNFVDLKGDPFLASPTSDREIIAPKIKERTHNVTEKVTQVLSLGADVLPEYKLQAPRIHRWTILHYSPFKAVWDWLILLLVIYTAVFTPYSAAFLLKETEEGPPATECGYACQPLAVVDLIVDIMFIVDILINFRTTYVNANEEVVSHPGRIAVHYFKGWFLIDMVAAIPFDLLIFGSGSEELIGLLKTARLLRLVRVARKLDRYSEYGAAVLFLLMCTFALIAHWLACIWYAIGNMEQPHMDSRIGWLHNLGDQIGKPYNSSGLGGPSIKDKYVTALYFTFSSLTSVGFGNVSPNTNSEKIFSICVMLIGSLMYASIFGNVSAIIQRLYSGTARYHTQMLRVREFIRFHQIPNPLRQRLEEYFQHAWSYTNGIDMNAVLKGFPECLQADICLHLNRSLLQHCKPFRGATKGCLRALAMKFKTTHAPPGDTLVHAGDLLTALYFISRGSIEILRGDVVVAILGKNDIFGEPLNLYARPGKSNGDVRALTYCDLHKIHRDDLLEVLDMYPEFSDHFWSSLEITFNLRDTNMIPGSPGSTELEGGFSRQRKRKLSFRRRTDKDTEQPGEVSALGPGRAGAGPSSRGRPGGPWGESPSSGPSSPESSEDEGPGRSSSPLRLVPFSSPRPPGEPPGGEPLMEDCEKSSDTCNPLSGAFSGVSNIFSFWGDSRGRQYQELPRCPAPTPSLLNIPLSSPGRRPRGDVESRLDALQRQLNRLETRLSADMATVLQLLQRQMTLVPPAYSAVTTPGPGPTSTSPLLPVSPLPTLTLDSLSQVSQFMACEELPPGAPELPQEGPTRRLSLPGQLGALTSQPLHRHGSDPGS
Experiment: Inhibition of human ERG by automated patch clamp assay
Details: not given

`CC(C)(C)C(=O)N1Cc2ccc(/C=C/C(=O)NO)cc2C1` and `CC(C)(C)OC(=O)N1Cc2ccc(/C=C/C(=O)NO)cc2C1` cannot be ordered by IC50: over 30 µM for the first, over 30 µM for the second.

`O=C(/C=C/c1ccc2c(c1)CN(C(=O)C1CCCC1)C2)NO` and `O=C(/C=C/c1ccc2c(c1)CN(C(=O)C1CC1)C2)NO` cannot be ordered by IC50: over 30 µM for the first, over 30 µM for the second.

First: O=C(/C=C/c1ccc2c(c1)CN(CCc1cnn3ccccc13)C2)NO
Second: O=C(/C=C/c1ccc2c(c1)CN(Cc1ccccc1)C2)NO
The IC50 of the first is 5.3-fold lower: 5.2 µM for the first, 27.5 µM for the second.

Compared with `Cc1[nH]c2ccccc2c1CCN1Cc2ccc(/C=C/C(=O)NO)cc2C1`, `Cc1[nH]c2ccccc2c1CC(=O)N1Cc2ccc(/C=C/C(=O)NO)cc2C1` is higher in IC50: 4.8 µM for the first, over 30 µM for the second.

`Cc1ccc(S(=O)(=O)N2Cc3ccc(/C=C/C(=O)NO)cc3C2)cc1` and `COc1ccc(S(=O)(=O)N2Cc3ccc(/C=C/C(=O)NO)cc3C2)cc1` cannot be ordered by IC50: over 30 µM for the first, over 30 µM for the second.

In the case of `Cc1cccc(S(=O)(=O)N2Cc3ccc(/C=C/C(=O)NO)cc3C2)c1`, the IC50 is reported as over 30 µM.

Biological target: T1, Voltage-gated inwardly rectifying potassium channel KCNH2
Experiment: Binding affinity to human ERG by radioligand binding assay
Details: not given

`Cc1[nH]c2ccccc2c1CC(=O)N1Cc2ccc(/C=C/C(=O)NO)cc2C1` showed an IC50 of over 30 µM.

Biological target: Cytochrome P450 3A4 (Homo sapiens, UniProt P08684)
Sequence (P08684 whole entry): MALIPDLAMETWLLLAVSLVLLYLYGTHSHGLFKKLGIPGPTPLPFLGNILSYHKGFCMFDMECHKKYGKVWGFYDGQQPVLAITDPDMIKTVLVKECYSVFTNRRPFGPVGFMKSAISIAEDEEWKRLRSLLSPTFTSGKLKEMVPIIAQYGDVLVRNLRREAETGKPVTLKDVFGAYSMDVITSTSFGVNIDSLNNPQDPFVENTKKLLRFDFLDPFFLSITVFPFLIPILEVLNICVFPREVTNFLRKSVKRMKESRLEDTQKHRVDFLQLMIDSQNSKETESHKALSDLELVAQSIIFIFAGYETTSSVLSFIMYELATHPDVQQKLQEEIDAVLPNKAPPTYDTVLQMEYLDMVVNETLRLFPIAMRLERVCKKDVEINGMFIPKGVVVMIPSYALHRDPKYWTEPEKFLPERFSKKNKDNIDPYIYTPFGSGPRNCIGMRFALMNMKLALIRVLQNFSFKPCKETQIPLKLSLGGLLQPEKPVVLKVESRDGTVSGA
Experiment: not given
Details: not given

`O=C(/C=C/c1ccc2c(c1)CN(CCc1cnn3ccccc13)C2)NO` and `Cc1[nH]c2ccccc2c1CCN1Cc2ccc(/C=C/C(=O)NO)cc2C1` cannot be ordered by IC50: over 50 µM for the first, over 10 µM for the second.

`O=C(/C=C/c1ccc2c(c1)CN(S(=O)(=O)c1cccs1)C2)NO` and `COc1ccc(S(=O)(=O)N2Cc3ccc(/C=C/C(=O)NO)cc3C2)cc1` cannot be ordered by IC50: over 50 µM for the first, over 50 µM for the second.

`Nc1ccccc1NC(=O)c1ccc(CNC(=O)OCc2cccnc2)cc1` [ENTINOSTAT] gave an IC50 of 0.73 µM.

Test system: not listed separately
Experiment: Half life in rat liver microsomes
Format: ADME, Microsome
Details: not given

`CC(C)(C)OC(=O)N1Cc2ccc(/C=C/C(=O)NO)cc2C1` and `Cc1[nH]c2ccccc2c1CC(=O)N1Cc2ccc(/C=C/C(=O)NO)cc2C1` are within 1.5-fold of each other in half-life: 14 min for the first, 15 min for the second.

Going from `O=C(/C=C/c1ccc2c(c1)CN(CCc1cnn3ccccc13)C2)NO` to `O=C(/C=C/c1ccc2c(c1)CN(Cc1ccccc1)C2)NO`, the half-life rises from 9 min to 29 min (3.2-fold).

First: Cc1[nH]c2ccccc2c1CCN1Cc2ccc(/C=C/C(=O)NO)cc2C1
Second: Cc1cccc(S(=O)(=O)N2Cc3ccc(/C=C/C(=O)NO)cc3C2)c1
The half-life of the first is 3.5-fold lower: 2 min for the first, 7 min for the second.

Compared with `Cc1ccc(S(=O)(=O)N2Cc3ccc(/C=C/C(=O)NO)cc3C2)cc1`, `COc1ccc(S(=O)(=O)N2Cc3ccc(/C=C/C(=O)NO)cc3C2)cc1` is 2.1-fold higher in half-life: 4.1 min for the first, 8.5 min for the second.

Going from `O=C(/C=C/c1cccc(S(=O)(=O)Nc2ccccc2)c1)NO` [BELINOSTAT] to `O=C(/C=C/c1ccc(CN(CCO)CCc2c[nH]c3ccccc23)cc1)NO` [DACINOSTAT], the half-life falls from 18 min to 2.3 min (7.8-fold).

For `Nc1ccccc1NC(=O)c1ccc(CNC(=O)OCc2cccnc2)cc1` [ENTINOSTAT], the half-life was 405 min.

Test system: hERG (KCNH2)
Experiment: not given
Details: human, hERG assay and HCT116 cells

Work on `Cc1[nH]c2ccccc2c1CC(=O)N1Cc2ccc(/C=C/C(=O)NO)cc2C1` yielded a selectivity ratio of over 158.

Same assay, conditions: human, hct-116

First: O=C(/C=C/c1ccc2c(c1)CN(CCc1cnn3ccccc13)C2)NO
Second: Cc1[nH]c2ccccc2c1CCN1Cc2ccc(/C=C/C(=O)NO)cc2C1
The selectivity ratio of the first is lower: 7.4 for the first, 114 for the second.

Test system: not listed separately
Experiment: Half life in human liver microsomes
Format: ADME, Microsome
Details: not given

`CC(C)(C)OC(=O)N1Cc2ccc(/C=C/C(=O)NO)cc2C1` and `Cc1[nH]c2ccccc2c1CC(=O)N1Cc2ccc(/C=C/C(=O)NO)cc2C1` are within 1.5-fold of each other in half-life: 131 min for the first, 173 min for the second.

First: O=C(/C=C/c1ccc2c(c1)CN(CCc1cnn3ccccc13)C2)NO
Second: O=C(/C=C/c1ccc2c(c1)CN(Cc1ccccc1)C2)NO
The half-life of the first is 2.2-fold higher: 112 min for the first, 50 min for the second.

Compared with `Cc1[nH]c2ccccc2c1CCN1Cc2ccc(/C=C/C(=O)NO)cc2C1`, `Cc1cccc(S(=O)(=O)N2Cc3ccc(/C=C/C(=O)NO)cc3C2)c1` is 2-fold lower in half-life: 30 min for the first, 15 min for the second.

Going from `Cc1ccc(S(=O)(=O)N2Cc3ccc(/C=C/C(=O)NO)cc3C2)cc1` to `COc1ccc(S(=O)(=O)N2Cc3ccc(/C=C/C(=O)NO)cc3C2)cc1`, the half-life rises from 11 min to 19 min (1.7-fold).

Compared with `O=C(/C=C/c1cccc(S(=O)(=O)Nc2ccccc2)c1)NO` [BELINOSTAT], `O=C(/C=C/c1ccc(CN(CCO)CCc2c[nH]c3ccccc23)cc1)NO` [DACINOSTAT] is 34-fold lower in half-life: 405 min for the first, 12 min for the second.

`Nc1ccccc1NC(=O)c1ccc(CNC(=O)OCc2cccnc2)cc1` [ENTINOSTAT] gave a half-life of 405 min.

Test system: HCT-116
Experiment: cells
Details: Homo sapiens
Description: Antiproliferative activity against human HCT116 cells

Compared with `O=C(/C=C/c1ccc2c(c1)CN(CCc1cnn3ccccc13)C2)NO`, `O=C(/C=C/c1ccc2c(c1)CN(Cc1ccccc1)C2)NO` is 2-fold higher in IC50: 0.53 µM for the first, 1.04 µM for the second. The first is the more potent here.

Compared with `O=C(/C=C/c1ccc2c(c1)CN(CCC1CCCCC1)C2)NO`, `Cc1[nH]c2ccccc2c1CCN1Cc2ccc(/C=C/C(=O)NO)cc2C1` is 21-fold lower in IC50: 0.9 µM for the first, 0.042 µM for the second. The second is the more potent here.

Compared with `O=C(/C=C/c1ccc2c(c1)CN(C(=O)c1cccc(C(F)(F)F)c1)C2)NO`, `Cc1cccc(S(=O)(=O)N2Cc3ccc(/C=C/C(=O)NO)cc3C2)c1` is 4.1-fold lower in IC50: 5.82 µM for the first, 1.42 µM for the second. The second is the more potent here.

Compared with `Cc1ccc(S(=O)(=O)N2Cc3ccc(/C=C/C(=O)NO)cc3C2)cc1`, `COc1ccc(S(=O)(=O)N2Cc3ccc(/C=C/C(=O)NO)cc3C2)cc1` is 1.7-fold lower in IC50: 1.58 µM for the first, 0.93 µM for the second.

Compared with `O=C(/C=C/c1ccc2c(c1)CN(S(=O)(=O)c1cccs1)C2)NO`, `Cc1[nH]c2ccccc2c1CC(=O)N1Cc2ccc(/C=C/C(=O)NO)cc2C1` is 4.2-fold lower in IC50: 0.8 µM for the first, 0.19 µM for the second.

Biological target: Histone deacetylase 1 (Homo sapiens, UniProt Q13547)
Sequence (Q13547 whole entry): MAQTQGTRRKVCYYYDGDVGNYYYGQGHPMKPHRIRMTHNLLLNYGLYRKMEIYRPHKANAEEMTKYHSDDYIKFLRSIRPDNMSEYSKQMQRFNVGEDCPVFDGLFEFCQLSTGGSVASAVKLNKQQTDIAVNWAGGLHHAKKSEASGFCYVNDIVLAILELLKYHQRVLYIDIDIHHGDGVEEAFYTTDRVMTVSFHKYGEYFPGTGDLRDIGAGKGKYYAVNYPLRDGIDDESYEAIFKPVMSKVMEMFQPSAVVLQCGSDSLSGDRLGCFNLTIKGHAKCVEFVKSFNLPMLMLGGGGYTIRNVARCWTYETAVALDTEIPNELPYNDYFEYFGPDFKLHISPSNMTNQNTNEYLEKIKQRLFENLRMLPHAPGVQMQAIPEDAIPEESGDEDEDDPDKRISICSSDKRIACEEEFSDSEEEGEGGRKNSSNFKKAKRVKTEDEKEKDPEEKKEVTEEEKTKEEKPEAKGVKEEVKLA
Experiment: not given
Details: not given

`CC(C)(C)C(=O)N1Cc2ccc(/C=C/C(=O)NO)cc2C1` and `CC(C)(C)OC(=O)N1Cc2ccc(/C=C/C(=O)NO)cc2C1` are within 1.5-fold of each other in IC50: 0.42 µM for the first, 0.52 µM for the second.

`O=C(/C=C/c1ccc2c(c1)CN(C(=O)C1CCCC1)C2)NO` and `O=C(/C=C/c1ccc2c(c1)CN(C(=O)C1CCCCC1)C2)NO` are within 1.5-fold of each other in IC50: 0.35 µM for the first, 0.39 µM for the second.

First: O=C(/C=C/c1ccc2c(c1)CN(CCc1cnn3ccccc13)C2)NO
Second: O=C(/C=C/c1ccc2c(c1)CN(Cc1ccccc1)C2)NO
The IC50 of the first is 2.6-fold lower: 0.078 µM for the first, 0.2 µM for the second.

Compared with `O=C(/C=C/c1ccc2c(c1)CN(CCC1CCCCC1)C2)NO`, `O=C(/C=C/c1ccc2c(c1)CN(C(=O)C1CC1)C2)NO` is 4.2-fold higher in IC50: 0.1 µM for the first, 0.42 µM for the second. The first is the more potent here.

`Cc1[nH]c2ccccc2c1CCN1Cc2ccc(/C=C/C(=O)NO)cc2C1` and `Cc1[nH]c2ccccc2c1CC(=O)N1Cc2ccc(/C=C/C(=O)NO)cc2C1` are within 1.5-fold of each other in IC50: 0.026 µM for the first, 0.02 µM for the second.

Compared with `O=C(/C=C/c1ccc2c(c1)CN(C(=O)c1cccc(C(F)(F)F)c1)C2)NO`, `Cc1cccc(S(=O)(=O)N2Cc3ccc(/C=C/C(=O)NO)cc3C2)c1` is 3.2-fold lower in IC50: 0.2 µM for the first, 0.062 µM for the second. The second is the more potent here.

`Cc1ccc(S(=O)(=O)N2Cc3ccc(/C=C/C(=O)NO)cc3C2)cc1` and `COc1ccc(S(=O)(=O)N2Cc3ccc(/C=C/C(=O)NO)cc3C2)cc1` are within 1.5-fold of each other in IC50: 0.047 µM for the first, 0.035 µM for the second.

With `O=C(/C=C/c1ccc2c(c1)CN(S(=O)(=O)c1cccs1)C2)NO` the IC50 was 0.089 µM.

— ChEMBL document CHEMBL1806458, “The design, synthesis and structure-activity relationships of novel isoindoline-based histone deacetylase inhibitors” (Bioorg Med Chem Lett, 2011)
